Consider 2 molecules from patent publication US20040037806A1, “Aldosterone blocker therapy to prevent or treat inflammation-related disorders” (Pharmacia Corporation, priority 2002, published 2004).

Common to all, as to format: in vivo, rat
A short description of assay [1]: Assay B: interstitial collagen volume fraction and hydroxyproline concentration (myocardial fibrosis). The settings on record: aldosterone/salt-treated uni-nephrectomized Sprague Dawley rats, 4 weeks. How it is done: Assay B: In Vivo Aldosterone Infusion Model Hearts were stained with hematoxylin&eosin and the collagen specific dye picro-sirius red and were analyzed for determination of interstitial collagen volume fraction and morphologic abnormalities (i.e. necrosis, vascular injury). Hydroxyproline concentration was measured in the frozen hearts.

Assay [2] relates to COX-2. Description: Assay B: COX-2 mRNA by quantitative RT-PCR (Taqman). How it is done: (§1) Assay B: In Vivo Aldosterone Infusion Model Determination of osteopontin and COX-2 was performed by quantitative RT-PCR (Taqman). Osteopontin was also identified in the heart by immunohistochemistry.
The subject of assay [3] is Transforming growth factor beta 1 (TGFβ1). Description: Assay C: TGFβ1 mRNA, TaqMan. As to conditions: aldosterone+salt, 7, 14, 30 days. How it is done: (§2) The procedure of Assay B was expanded upon in a further study. […] Myocardial tissue from animals in each treatment group was examined after 7, 14, or 30 days of treatment.
(§3) Potassium chloride supplementation was added to the saline solution in order to prevent the potential hypokalemia associated with aldosterone excess.
(§4) Treatment At the time of the surgery, an Alzet 2002 osmotic minipump (Alza Corp., Palo Alto, Calif.) containing either vehicle (9% ethanol/87% propylene glycol/4% dH2O) or 1.0 mg/mL d-aldosterone (Sigma Chemical, St. Louis, Mo.) was inserted subcutaneously at the nape of the neck. Aldosterone was administered at a dose of 0.75 µg/hour. […]
(§5) The fluorogenic 5′-nuclease assay (TaqMan PCR) using Applied Biosystems' 7700 Sequence Detection System (Applied Biosystems, Foster City, Calif.) allowed for real time detection/quantitation of a specific gene by monitoring the increase in fluorescence of a gene-specific, dye-labeled oligonucleotide probe. […] When the probe was annealed to the target gene, fluorescence of 6FAM was prevented by the close proximity of TAMRA. The exonuclease activity of Taq polymerase released the dyes from the oligonucleotide probe by displacing the probe from the target sequence resulting in fluorescence excitation in direct proportion to the amount of target message present. […]

For assay [4], the system named is Atrial natriuretic factor (ANP). Description: Assay C: ANP mRNA in left ventricle, TaqMan. The settings on record: aldosterone+salt alone or with eplerenone 100 mg/kg/day; 7, 14, 30 days. As for the experimental part:
as §2, §3, §4, §5

The subject of assay [5] is osteopontin. Description: Assay B: osteopontin mRNA by quantitative RT-PCR (Taqman). The settings on record: aldosterone/salt-treated rats receiving vehicle. How it is done:
as §1

A short description of assay [6]: Histopathological scores for renal injury in angiotensin II infused, captopril treated stroke prone spontaneously hypertensive rats. As to conditions: captopril treated stroke prone spontaneously hypertensive rats (FIG. 36).
The nature of assay [7]: Assay A: angiotensin II infusion model, urinary Na+/K+ ratio (natriuresis index). As to conditions: Wistar rats, 1% NaCl, angiotensin II 25 ng/min sc; eplerenone 100 mpk. The source says: Electrolyte excretion. The ratio between daily urinary Na^+ excretion and urinary K^+ excretion (U Na^+/K^+ ratio) was used as an index for natriuresis. Urinary Na^+/K^+ ratio was similar in all groups before the start of the treatments, and increased similarly in all animals upon initiation of the high salt diet.

Assay [8] is described as follows: Survival and cerebral injury in stroke-prone spontaneously hypertensive rats.
The subject of assay [9] is osteopontin. Description: Assay B: serum osteopontin levels at 28 days. The settings on record: NaCl 1% drinking rats with aldosterone and eplerenone.

Entries after “also recorded” stand apart in the source; their conditions may differ.

Take `C[C@]12CCC(=O)C=C1CC[C@@H]1[C@@H]2[C@@H](O)C[C@]2(C=O)[C@@H](C(=O)CO)CC[C@@H]12` [aldosterone]: in assay [1], the “Myocardial fibrosis (interstitial collagen volume fraction, hydroxyproline concentration)” value was “absence of myocardial fibrosis”. The “Increase of COX-2 mRNA expression vs control” value in [2] (aldosterone/salt+vehicle treatment) stood at 3 fold. The “COX-2 relative mRNA expression in the heart” value in assay [2] (aldosterone/salt-treated rats, 4 weeks, vehicle or eplerenone 100 mpk p.o, control 1.2±0.12) is on record as 3.7±0.46. The “TGF-β mRNA levels” value in [3] is given as “not upregulated at any of the time points examined”. Also, the “Atrial natiuretic peptide (ANP) mRNA levels” value in assay [4] is “Significant elevations”. Besides, the “Upregulation of osteopontin mRNA vs control” value in [5] was 7 fold.
Turning to `COC(=O)[C@@H]1CC2=CC(=O)CC[C@]2(C)[C@@]23O[C@@H]2C[C@@]2(C)[C@@H](CC[C@@]24CCC(=O)O4)[C@H]13` [eplerenone], in assay [6], the “Histopathological scores for renal injury” value is listed as “reduction in histopathological scores for renal injury”. Moreover, the “Urinary Na+/K+ ratio (index for natriuresis)” value in assay [7] is listed as “did not produce a significant diuretic or natriuretic effect”. Besides, in assay [8] (stroke-prone spontaneously hypertensive rats (FIG. 37)), the Survival result is recorded as “increased survival”. Besides, the Cerebral injury result in [8] (stroke-prone spontaneously hypertensive rats (FIGS. 37, 38)) is given as “reduced cerebral injury; also recorded: decrease in cerebral injury”. Also, in assay [9], the “Circulating (serum) osteopontin levels” value is listed as “marked decrease in circulating osteopontin levels”. For the same molecule, the “Atrial natiuretic peptide (ANP) mRNA levels” value in assay [4] was “significantly reduced by eplerenone after 30 days of treatment but not after 14 days”.
